Test results from patent US20250051356A1, “RIFABUTIN ANALOGS FOR THE TREATMENT OF DISEASE” (priority 2021, published 2025).
≈ marks a conversion by molar mass, not a printed value. Where two headings read alike, the source gives them in different places.

Tests used:
Type in all cases: cell-based
[1] = test system: S. aureus (UAMS-1625 strain); experiment: MIC by broth microdilution against S. aureus; settings: Staphylococcus aureus, read-out: MIC S. aureus
[2] = test system: A. baumannii (HUMC1 strain); experiment: MIC by broth microdilution against A. baumannii in RPMI + 10% FCS; settings: Acinetobacter baumannii, read-out: MIC A. baumannii
[3] = test system: M. abscessus subsp. abscessus ATCC 19977; experiment: MIC against M. abscessus in Middlebrook 7H9 + ADC; settings: Mycobacteroides abscessus
[4] = ATCC19977, ATCC 19977, 7H9 + ADC, read-out: MIC M. abscessus

Row | SMILES | MIC [1] | MIC [2] | MIC ([3]; ATCC19977, read-out: MIC M. abscessus) | MIC ([2]; HUMC1 strain, RPMI + 10% FCS) | MIC [3, 4]
1 | CO[C@H]1/C=C/O[C@@]2(C)Oc3c(C)c(O)c4c(c3C2=O)C2=NC3(CCN(CC(C)C)CC3)NC2=C(NC(=O)/C(C)=C\C=C\[C@H](C)[C@H](O)[C@@H](C)[C@@H](O)[C@@H](C)[C@H](OC(=O)CC(=O)N2CCC(NS(=O)(=O)c3ccccc3)CC2)[C@@H]1C)C4=O [Compound 61] | 0.125 µg/mL (≈ 0.112 µM) | 0.008 µg/mL | 0.5 µg/mL |  | 
2 | CO[C@H]1/C=C/O[C@@]2(C)Oc3c(C)c(O)c4c(c3C2=O)C2=NC3(CCN(CC(C)C)CC3)NC2=C(NC(=O)/C(C)=C\C=C\[C@H](C)[C@H](O)[C@@H](C)[C@@H](O)[C@@H](C)[C@H](OC(=O)CC(=O)N2CCC(N3CCn5ccnc5C3)CC2)[C@@H]1C)C4=O [Compound 62] | 0.06 µg/mL (≈ 0.0556 µM) |  |  | ≤ 0.002 µg/mL | 1 µg/mL
3 | CO[C@H]1/C=C/O[C@@]2(C)Oc3c(C)c(O)c4c(c3C2=O)C2=NC3(CCN(CC(C)C)CC3)NC2=C(NC(=O)/C(C)=C\C=C\[C@H](C)[C@H](O)[C@@H](C)[C@@H](O)[C@@H](C)[C@H](OC(=O)CC(=O)N2CC(Nc3ccc(F)cc3)C2)[C@@H]1C)C4=O [Compound 63] | 0.25 µg/mL (≈ 0.241 µM) |  |  | 0.016 µg/mL | 0.5 µg/mL
4 | CO[C@H]1/C=C/O[C@@]2(C)Oc3c(C)c(O)c4c(c3C2=O)C2=NC3(CCN(CC(C)C)CC3)NC2=C(NC(=O)/C(C)=C\C=C\[C@H](C)[C@H](O)[C@@H](C)[C@@H](O)[C@@H](C)[C@H](OC(=O)CC(=O)N2CC(n3ccnn3)C2)[C@@H]1C)C4=O [Compound 64] | 0.06 µg/mL (≈ 0.0602 µM) |  |  | ≤ 0.002 µg/mL | 1 µg/mL
5 | CO[C@H]1/C=C/O[C@@]2(C)Oc3c(C)c(O)c4c(c3C2=O)C2=NC3(CCN(CC(C)C)CC3)NC2=C(NC(=O)/C(C)=C\C=C\[C@H](C)[C@H](O)[C@@H](C)[C@@H](O)[C@@H](C)[C@H](OC(=O)CC(=O)N2CCc3[nH]c5ccccc5c3C2)[C@@H]1C)C4=O [Compound 65] | 0.125 µg/mL (≈ 0.12 µM) |  |  | 0.016 µg/mL | 0.5 µg/mL
6 | CO[C@H]1/C=C/O[C@@]2(C)Oc3c(C)c(O)c4c(c3C2=O)C2=NC3(CCN(CC(C)C)CC3)NC2=C(NC(=O)/C(C)=C\C=C\[C@H](C)[C@H](O)[C@@H](C)[C@@H](O)[C@@H](C)[C@H](OC(=O)CCC(=O)NCCN(C)C)[C@@H]1C)C4=O [Compound 72] | 0.06 µg/mL (≈ 0.0615 µM) |  |  | ≤ 0.002 µg/mL | 1 µg/mL
7 | CO[C@H]1/C=C/O[C@@]2(C)Oc3c(C)c(O)c4c(c3C2=O)C2=NC3(CCN(CC(C)C)CC3)NC2=C(NC(=O)/C(C)=C\C=C\[C@H](C)[C@H](O)[C@@H](C)[C@@H](O)[C@@H](C)[C@H](OC(=O)CCC(=O)OCC2CCCN(C)C2)[C@@H]1C)C4=O (stereo partly drawn) [Compound 73] | 0.06 µg/mL (≈ 0.059 µM) |  |  | ≤ 0.002 µg/mL | 1 µg/mL
8 | CO[C@H]1/C=C/O[C@@]2(C)Oc3c(C)c(O)c4c(c3C2=O)C2=NC3(CCN(CC(C)C)CC3)NC2=C(NC(=O)/C(C)=C\C=C\[C@H](C)[C@H](O)[C@@H](C)[C@@H](O)[C@@H](C)[C@H](OC(=O)CCCC(=O)OCC2CCCN(C)C2)[C@@H]1C)C4=O (stereo partly drawn) [Compound 74] | 0.06 µg/mL (≈ 0.0582 µM) |  |  | ≤ 0.002 µg/mL | 1 µg/mL
9 | CO[C@H]1/C=C/O[C@@]2(C)Oc3c(C)c(O)c4c(c3C2=O)C2=NC3(CCN(CC(C)C)CC3)NC2=C(NC(=O)/C(C)=C\C=C\[C@H](C)[C@H](O)[C@@H](C)[C@@H](O)[C@@H](C)[C@H](OC(=O)CCCC(=O)OC2CCN(C)C2)[C@@H]1C)C4=O (stereo partly drawn) [Compound 77] | 0.06 µg/mL (≈ 0.0599 µM) |  |  | ≤ 0.002 µg/mL | 0.5 µg/mL
10 | CO[C@H]1/C=C/OC2(C)Oc3c(C)c(O)c4c(c3C2=O)C2=NC3(CCN(CC(C)C)CC3)NC2=C(NC(=O)/C(C)=C\C=C\[C@H](C)[C@H](O)[C@@H](C)[C@@H](O)[C@@H](C)[C@H](OC(=O)CC(=O)N2CCn3c2nc2ccccc23)[C@@H]1C)C4=O (stereo partly drawn) [Compound 89] | 0.125 µg/mL (≈ 0.121 µM) |  |  | 0.016 µg/mL | 0.5 µg/mL
11 | CO[C@H]1/C=C/O[C@@]2(C)Oc3c(C)c(O)c4c(c3C2=O)C2=NC3(CCN(CC(C)C)CC3)NC2=C(NC(=O)/C(C)=C\C=C\[C@H](C)[C@H](O)[C@@H](C)[C@@H](O)[C@@H](C)[C@H](OC(=O)CC(=O)N2CCN(C3CN(C)C3)CC2)[C@@H]1C)C4=O [Compound 111] | 0.125 µg/mL (≈ 0.122 µM) |  |  | 0.06 µg/mL | 0.5 µg/mL
12 | CO[C@H]1/C=C/O[C@@]2(C)Oc3c(C)c(O)c4c(c3C2=O)C2=NC3(CCN(CC(C)C)CC3)NC2=C(NC(=O)/C(C)=C\C=C\[C@H](C)[C@H](O)[C@@H](C)[C@@H](O)[C@@H](C)[C@H](OC(=O)CC(=O)N2CCN(C3CCN(C)CC3)CC2)[C@@H]1C)C4=O [Compound 112] | 0.125 µg/mL (≈ 0.118 µM) |  |  | 0.004 µg/mL | 1 µg/mL
13 | CO[C@H]1/C=C/O[C@@]2(C)Oc3c(C)c(O)c4c(c3C2=O)C2=NC3(CCN(CC(C)C)CC3)NC2=C(NC(=O)/C(C)=C\C=C\[C@H](C)[C@H](O)[C@@H](C)[C@@H](O)[C@@H](C)[C@H](OC(=O)CC(=O)N2CCN(CCN(C)C)CC2)[C@@H]1C)C4=O [Compound 113] | 0.06 µg/mL (≈ 0.0582 µM) |  |  | 0.06 µg/mL | 0.5 µg/mL
